Test results published in US12130283B2, “Methods, systems and compositions for functional in vitro cellular models of mammalian systems” (University of Central Florida Research Foundation, Inc., priority 2012, dated 2024).

Columns and labels:
[1] = test system: patterned neonatal cardiomyocytes; experiment: Field potential recordings from patterned neonatal cardiomyocytes on microelectrode arrays; format: cell-based, rat
Text: However, commercial MEAs have electrodes spaced too close to allow effective measurement of conduction velocity, so the long linear surface chemistry patterns developed in [Natarajan 2011] allowed for measurement of conduction velocity in the spontaneously beating patterned cardiomyocytes effectively.
The μCCA in FIG. 4 required the use of liver cells and cardiac myocytes. In FIG. 4GB, pump is 43, other tissues compartment is 44, and bubble is 45. The neonatal cardiac myocyte cultures are obtained from two-day-old rat pups by previously published methods [Dhir 2009; Natajaran 2011]. Cardiac myocytes were plated at a density of […] on the patterned MEAs. Approximately 10 days were required for the cultures to establish themselves. Cardiac myocytes were stable on the patterns for at least 30 days. A silicon rubber gasket was used to isolate the tissue chambers on the μCCA prior to assembly to allow optimization of culture conditions in each chamber. After 10 days, cells were introduced to the liver compartment. […]
The cardiac myocytes were cultured on patterned metal MEAs (Planar 10 μm electrodes, 200 μm separation. Multichannel-systems). […] After a 30 minute incubation period, APs were detected and recorded using built in functions of the Multichannel System software. […] The data was further analyzed using software written using Matlab and Clampfit (Axon instruments).

colon cancer = settings: cited from earlier work
[2] = in vivo; cited from earlier work
cultured cardiomyocytes = experiment: Spontaneous firing rate of cultured cardiomyocytes on patterned MEA (FIG. 14F); format: cell-based, human
Text: The disclosed systems are based on human cardiac myocytes. As described herein, the incorporation of a functional cardiac system based on patterned cardiac cells integrated with microelectrode assays enabled the measurement of several cardiac parameters including conduction velocity, peak amplitude and spontaneous frequency, QT interval, and relative refractory period (which is related to triangulation). […] As shown in FIGS. 14A-F, cardiac function can be mimicked or simulated using a component comprising a microcantilever detection system (14A) or a patterned MEA (microelectrode array), FIG. 14D. […] Spontaneous or electrical stimulation-evoked force generation of cardiac myocytes was measured based on optical or electrical detection of cantilever-bending. […] The sensor detected the displacement of the laser beam caused by changes in the position of the cantilever. […] Peak contraction force and force-contraction velocity relationships were calculated based on the geometry of the cantilevers and the thickness of cultured cardiac myocytes (determined from immunostaining data). Compounds (such as norepinephrine, verapamil, and sotalol) were applied using traditional methods to the medium and possible changes in force or force-velocity relationship were detected and analyzed using standard statistical methods. […]

In the case of `CCCCCCCO` [1-Heptanol], the “conduction velocity (CV) after Heptanol exposure” value ([1]; between electrodes 84 and 52, CV before addition of the drug 0.22 m/sec) is reported as 0.011 m/sec.
In the case of `O=c1[nH]c(=O)n(C2CCCO2)cc1F` (stereo not drawn) [Tegafur], the “optimal uracil to Tegafur ratio” value (colon cancer; maximizing the concentration of 5-FU in the tumor relative to that in the blood) is listed as 4 to 1.
For `CC1(C)C(C=C(Cl)Cl)C1C(=O)OCc1cccc(Oc2ccccc2)c1` (stereo not drawn) [cis-permethrin], the “toxicity of cis isomers relative to trans isomers” value [2] is given as “about ten times more toxic”.
In the case of `NC[C@H](O)c1ccc(O)c(O)c1` [norepinephrine], the “effect on spontaneous firing rates” value (cultured cardiomyocytes) is reported as “elicits alteration of spontaneous firing rates”.
For `C[C@@H]1CN(c2c(F)c(N)c3c(=O)c(C(=O)O)cn(C4CC4)c3c2F)C[C@H](C)N1` [sparfloxacin], the “responsiveness of the patterned cardiac system” value [1] was “responsive”.
In the case of `O=c1cc[nH]c(=O)[nH]1` [uracil], the “effect on the toxicity of Tegafur” value (colon cancer) is given as “enhances the toxicity of Tegafur”.
